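Method: 48-hour compound exposure of cells in 96-well plates, five concentrations, linear interpolation of endpoints. TGI: concentration producing complete growth inhibition.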
What was measured:
Experiment in all cases: growth of human tumour cells (NCI), 48 h
[1] = test system: 786-0 renal
[2] = test system: A498 renal
[3] = test system: A549 NSCLC
[4] = test system: ACHN renal
[5] = test system: CAKI-1 renal
[6] = test system: CCRF-CEM leukemia
[7] = test system: COLO 205 colon
[8] = test system: DLD-1 colon
[9] = test system: DMS 273 small cell lung
[10] = test system: EKVX NSCLC
[11] = test system: HCC-2998 colon
[12] = test system: HCT-116 colon
[13] = test system: HCT-15 colon
[14] = test system: HL-60(TB) leukemia
[15] = test system: HOP-18 NSCLC
[16] = test system: HOP-62 NSCLC
[17] = test system: HT29 colon
[18] = test system: IGROV1 ovarian
[19] = test system: K-562 leukemia
[20] = test system: KM12 colon
[21] = test system: KM20L2 colon
[22] = test system: LOX IMVI melanoma
[23] = test system: LXFL 529 NSCLC
[24] = test system: M14 melanoma
[25] = test system: M19-MEL melanoma
[26] = test system: MALME-3M melanoma
[27] = test system: MOLT-4 leukemia
[28] = test system: NCI-H226 lung
[29] = test system: NCI-H23 lung
[30] = test system: NCI-H460 lung
[31] = test system: NCI-H522 lung
[32] = test system: OVCAR-3 ovarian
[33] = test system: OVCAR-4 ovarian
[34] = test system: OVCAR-5 ovarian
[35] = test system: OVCAR-8 ovarian
[36] = test system: RXF 393 renal
[37] = test system: RXF-631 renal
[38] = test system: SF-268 CNS
[39] = test system: SF-295 CNS
[40] = test system: SF-539 CNS
[41] = test system: SK-MEL-2 melanoma
[42] = test system: SK-MEL-28 melanoma
[43] = test system: SK-MEL-5 melanoma
[44] = test system: SK-OV-3 ovarian
[45] = test system: SN12C renal
[46] = test system: SNB-19 CNS
[47] = test system: SNB-75 CNS
[48] = test system: SNB-78 CNS
[49] = test system: SR leukemia
[50] = test system: SW-620 colon
[51] = test system: TK-10 renal
[52] = test system: U251 CNS
[53] = test system: UACC-257 melanoma
[54] = test system: UACC-62 melanoma
[55] = test system: UO-31 renal
[56] = test system: XF 498 CNS
[57] = test system: DMS 114 small cell lung
[58] = test system: RPMI-8226 leukemia

Measured: TGI

CCOC(=N)CC(=O)Nc1ccccc1CC
not listed: [57] | [58]
> 100 µM: all other assays above

CN1COCN=C1NC#N
not listed: [1] | [9] | [29] | [35] | [36] | [43] | [49] | [51] | [52]
> 100 µM: all other assays above
